# Experimental data from PubChem BioAssay AID2060604 (Molecular Pharmacology Branch, DTP, NCI, 2025).
# Test system: 379773-124-R-J2-PDC complex spheroids, viability % test/control
# Experiment: Anticancer human tumor 379773-124-R-J2-PDC patient-derived endometrial carcinoma cell line growth inhibition [CLK]
# Details: for IC50: curve of first compound; for viability, T/C: stronger effect = lower value
# Method in brief: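 Multi-cell-type spheroids combined patient-derived tumor cells with HUVEC endothelial cells and human mesenchymal stem cells. Paired agents were dosed in half-log steps down from about clinical Cmax, or from 10 microM where Cmax was unknown.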
# 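Further: compound exposure lasted seven days before the viability readout.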
# 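Wherever viability, T/C is given: 100% = DMSO vehicle control wells.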
structure (smiles),measurement,setting,value
NC(=O)C(=Cn1cnc(-c2cc(C(F)(F)F)cc(C(F)(F)F)c2)n1)c1cncnc1 + CN1CCN(c2cc(C(=O)Nc3cc4cc(-c5cnn(C)c5)ccc4cn3)ccn2)CC1,IC50,second compound 0.0316 µM,0.059 µM
same,IC50,second compound 0.1 µM,0.0477 µM
same,IC50,second compound 0.316 µM,< 0.00949 µM
same,IC50,second compound 1 µM,< 0.00949 µM
same,IC50,second compound 3.16 µM,< 0.00949 µM
same,IC50,second compound 10 µM,< 0.00949 µM
same,"viability, T/C","second compound 0.0316 µM, first compound 0.00949 µM",84.8%
same,"viability, T/C","second compound 0.0316 µM, first compound 0.03 µM",64.5%
same,"viability, T/C","second compound 0.0316 µM, first compound 0.0949 µM",39.2%
same,"viability, T/C","second compound 0.0316 µM, first compound 0.3 µM",22.6%
same,"viability, T/C","second compound 0.0316 µM, first compound 0.949 µM",11.4%
same,"viability, T/C","second compound 0.0316 µM, first compound 3 µM",5.29%
same,"viability, T/C","second compound 0.1 µM, first compound 0.00949 µM",60.4%
same,"viability, T/C","second compound 0.1 µM, first compound 0.03 µM",57.7%
same,"viability, T/C","second compound 0.1 µM, first compound 0.0949 µM",39.9%
same,"viability, T/C","second compound 0.1 µM, first compound 0.3 µM",17.9%
same,"viability, T/C","second compound 0.1 µM, first compound 0.949 µM",8.03%
same,"viability, T/C","second compound 0.1 µM, first compound 3 µM",2.96%
same,"viability, T/C","second compound 0.316 µM, first compound 0.00949 µM",16.4%
same,"viability, T/C","second compound 0.316 µM, first compound 0.03 µM",14.8%
same,"viability, T/C","second compound 0.316 µM, first compound 0.0949 µM",7.32%
same,"viability, T/C","second compound 0.316 µM, first compound 0.3 µM",3.49%
same,"viability, T/C","second compound 0.316 µM, first compound 0.949 µM",1.06%
same,"viability, T/C","second compound 0.316 µM, first compound 3 µM",0.04%
same,"viability, T/C","second compound 1 µM, first compound 0.00949 µM",0.1%
same,"viability, T/C","second compound 1 µM, first compound 0.03 µM",0.12%
same,"viability, T/C","second compound 1 µM, first compound 0.0949 µM",0.3%
same,"viability, T/C","second compound 1 µM, first compound 0.3 µM",0.14%
same,"viability, T/C","second compound 1 µM, first compound 0.949 µM",1.96%
same,"viability, T/C","second compound 1 µM, first compound 3 µM",0.06%
same,"viability, T/C","second compound 3.16 µM, first compound 0.00949 µM",2.45%
same,"viability, T/C","second compound 3.16 µM, first compound 0.03 µM",0.72%
same,"viability, T/C","second compound 3.16 µM, first compound 0.0949 µM",0.44%
same,"viability, T/C","second compound 3.16 µM, first compound 0.3 µM",0.13%
same,"viability, T/C","second compound 3.16 µM, first compound 0.949 µM",0.11%
same,"viability, T/C","second compound 3.16 µM, first compound 3 µM",0.11%
same,"viability, T/C","second compound 10 µM, first compound 0.00949 µM",0.45%
same,"viability, T/C","second compound 10 µM, first compound 0.03 µM",0.13%
same,"viability, T/C","second compound 10 µM, first compound 0.0949 µM",1.03%
same,"viability, T/C","second compound 10 µM, first compound 0.3 µM",0.18%
same,"viability, T/C","second compound 10 µM, first compound 0.949 µM",0.19%
same,"viability, T/C","second compound 10 µM, first compound 3 µM",0.17%
Nc1ccccc1NC(=O)c1ccc(CNC(=O)OCc2cccnc2)cc1 + CN1CCN(c2cc(C(=O)Nc3cc4cc(-c5cnn(C)c5)ccc4cn3)ccn2)CC1,IC50,second compound 0.0316 µM,3.11 µM
same,IC50,second compound 0.1 µM,1.97 µM
same,IC50,second compound 0.316 µM,< 0.0316 µM
same,IC50,second compound 1 µM,< 0.0316 µM
same,IC50,second compound 3.16 µM,< 0.0316 µM
same,IC50,second compound 10 µM,< 0.0316 µM
same,"viability, T/C","second compound 0.0316 µM, first compound 0.0316 µM",89.8%
same,"viability, T/C","second compound 0.0316 µM, first compound 0.1 µM",92.6%
same,"viability, T/C","second compound 0.0316 µM, first compound 0.316 µM",113%
same,"viability, T/C","second compound 0.0316 µM, first compound 1 µM",104%
same,"viability, T/C","second compound 0.0316 µM, first compound 3.16 µM",49.1%
same,"viability, T/C","second compound 0.0316 µM, first compound 10 µM",10.4%
same,"viability, T/C","second compound 0.1 µM, first compound 0.0316 µM",82.2%
same,"viability, T/C","second compound 0.1 µM, first compound 0.1 µM",81%
same,"viability, T/C","second compound 0.1 µM, first compound 0.316 µM",111%
same,"viability, T/C","second compound 0.1 µM, first compound 1 µM",66.2%
same,"viability, T/C","second compound 0.1 µM, first compound 3.16 µM",36%
same,"viability, T/C","second compound 0.1 µM, first compound 10 µM",5.29%
same,"viability, T/C","second compound 0.316 µM, first compound 0.0316 µM",21.2%
same,"viability, T/C","second compound 0.316 µM, first compound 0.1 µM",27.6%
same,"viability, T/C","second compound 0.316 µM, first compound 0.316 µM",17.5%
same,"viability, T/C","second compound 0.316 µM, first compound 1 µM",13.2%
same,"viability, T/C","second compound 0.316 µM, first compound 3.16 µM",4.61%
same,"viability, T/C","second compound 0.316 µM, first compound 10 µM",0.06%
same,"viability, T/C","second compound 1 µM, first compound 0.0316 µM",0.13%
same,"viability, T/C","second compound 1 µM, first compound 0.1 µM",0.25%
same,"viability, T/C","second compound 1 µM, first compound 0.316 µM",0.3%
same,"viability, T/C","second compound 1 µM, first compound 1 µM",1.14%
same,"viability, T/C","second compound 1 µM, first compound 3.16 µM",0.04%
same,"viability, T/C","second compound 1 µM, first compound 10 µM",0.92%
same,"viability, T/C","second compound 3.16 µM, first compound 0.0316 µM",0.08%
same,"viability, T/C","second compound 3.16 µM, first compound 0.1 µM",0.1%
same,"viability, T/C","second compound 3.16 µM, first compound 0.316 µM",0.08%
same,"viability, T/C","second compound 3.16 µM, first compound 1 µM",1.25%
same,"viability, T/C","second compound 3.16 µM, first compound 3.16 µM",0.1%
same,"viability, T/C","second compound 3.16 µM, first compound 10 µM",0.09%
same,"viability, T/C","second compound 10 µM, first compound 0.0316 µM",0.15%
same,"viability, T/C","second compound 10 µM, first compound 0.1 µM",0.81%
same,"viability, T/C","second compound 10 µM, first compound 0.316 µM",0.62%
same,"viability, T/C","second compound 10 µM, first compound 1 µM",1.15%
same,"viability, T/C","second compound 10 µM, first compound 3.16 µM",1.4%
same,"viability, T/C","second compound 10 µM, first compound 10 µM",0.15%
